Earlier results as cited in article PMC5677520 (Journal of medicinal chemistry, 2017).

Conditions: result in words

Row | Molecule | passive permeabilities
1 | CC[C@H](C)[C@@H]1NC(=O)c2csc(n2)[C@@H](C)NC(=O)[C@H]2N=C(O[C@@H]2C)[C@H](C(C)C)NC(=O)c2csc(n2)[C@@H](Cc2ccccc2)NC(=O)[C@H]2N=C1O[C@@H]2C [patellamide C] | druglike
2 | cylindrocyclin | druglike
